Source: ChEMBL document CHEMBL1158654, “Cytotoxic principles from the sap of Kalmia latifolia” (J Nat Prod, 1979)
≈ marks a conversion by molar mass, not a printed value.

Assays:
[1] = Cytotoxicity against human 9KB cells assessed as cell survival at 100 ug/ml relative to control; format: functional; conditions: read-out: Activity
[2] = Cytotoxicity against human 9KB cells assessed as cell survival at 10 ug/ml relative to control; format: functional; conditions: read-out: Activity
[3] = Cytotoxicity against human 9KB cells relative to control; format: functional; conditions: read-out: ED50 (the source's name)
[4] = Cytotoxicity against human 9KB cells in in-vivo based assay at 65 mg/kg relative to control; format: functional
[5] = Toxicity in ip dosed mouse; format: organism-based; conditions: in vivo
[6] = tested on: P388; assay: Cytotoxicity against mouse P388 cells relative to control; format: functional

Structure (SMILES) | viability at 100 µg/mL [1] | viability at 10 µg/mL [2] | EC50 [3] | T/C [4] | LD50 [5] | T/C [6]
O=C(CCc1ccc(O)cc1)c1c(O)cc(O)cc1O[C@@H]1O[C@H](CO)[C@@H](O)[C@H](O)[C@H]1O [PHLORIZIN] | 47% | 100% | 100 µg/mL (≈ 229 µM) |  |  | 
COc1ccc(CCC(=O)c2c(O)cc(O)cc2O)cc1O | 46% | 100% |  |  |  | 
COc1cc(O)c(C(C)=O)c(O[C@@H]2O[C@H](CO)[C@@H](O)[C@H](O)[C@H]2O)c1 [PLEOSIDE] | 39% | 100% |  |  |  | 
COc1cc(O)c(C(=O)CCc2ccc(O)cc2)c(O)c1 [ASEBOGENIN] | 0% | 100% |  |  |  | 
COc1cc(O)c(C(C)=O)c(O)c1 | 0% | 0% | 4.7 µg/mL (≈ 25.8 µM) |  |  | 
COc1cc(O)c(C(=O)CCc2ccc(O)cc2)c(O[C@@H]2O[C@H](CO)[C@@H](O)[C@H](O)[C@H]2O)c1 [ASEBOTIN] | 100% | 100% |  |  |  | 
O=C(CCc1ccc(O)c(O)c1)c1ccc(O)c(O)c1O | 0% | 0% | 2.5 µg/mL (≈ 8.61 µM) | 126% |  | 
O=C(CCc1ccc(O)cc1)c1ccc(O)cc1O [DAVIDIGENIN] | 0% | 50% |  |  |  | 
O=C(CCc1ccc(O)cc1)c1c(O)cccc1O | 20% | 100% |  |  |  | 
O=C(CCc1ccc(O)cc1)c1cccc(O)c1 | 0% | 71% |  |  |  | 
COc1cc(C(=O)CCc2ccc(O)cc2)ccc1O | 0% | 57% |  |  |  | 
O=C(CCc1ccc(O)cc1)c1ccc(O)c(O)c1O | 0% | 100% |  |  |  | 
CC(=O)O[C@@H]1[C@H]2CC[C@H]3[C@@](C)(O)[C@@H]4C[C@H](O)C(C)(C)[C@@]4(O)[C@H](O)C[C@@]13C[C@@]2(C)O [GRAYANOTOXIN I] |  |  | 60 µg/mL (≈ 145 µM) |  | 1.3 mg/kg | 
O=C(CCc1ccc(O)cc1)c1ccc(O)cc1 | 0% | 90% |  |  |  | 
O=C(CCc1ccc(O)c(O)c1)c1ccccc1O | 0% | 100% |  |  |  | 
COc1ccc(C(=O)CCc2ccc(O)cc2)c(O)c1 | 0% | 100% |  |  |  | 
COc1cc(O)c(C(C)=O)c(OC)c1 [XANTHOXYLIN] | 0% | 100% |  |  |  | 
O=C(CCc1ccc(O)c(O)c1)c1c(O)cc(O)cc1O | 0% | 95% |  |  |  | 
O=C(CCc1ccccc1)c1c(O)cc(O)cc1O | 0% | 100% |  |  |  | 
O=C(CCc1ccc(O)cc1)c1c(O)cc(O)cc1O [PHLORETIN] | 0% | 76% | 28 µg/mL (≈ 102 µM) |  |  | 
COc1cc(O)c(C(=O)CCc2ccccc2)c(OC)c1 | 0% | 59% |  |  |  | 
CC(=O)c1ccc(O)c(O)c1O [GALLACETOPHENONE] | 0% | 81% |  |  |  | 
O=C(CCc1ccc(O)cc1)c1ccccc1 | 0% | 89% |  |  |  | 
O=C(CCc1ccc(O)cc1)c1ccccc1O | 0% | 100% |  |  |  | 
COc1cc(O)c(Cc2ccccc2O)c(O)c1C(=O)CCc1ccccc1 [UVARETIN] |  |  |  |  |  | 132%
COc1cc(CCC(=O)c2ccccc2)ccc1O | 0% | 82% |  |  |  | 
CC(=O)c1c(O)cc(O)cc1O [2,4,6-TRIHYDROXYACETOPHENONE] | 29% | 100% |  |  |  | 
COc1cc(CCC(=O)c2ccccc2O)ccc1O | 0% | 76% |  |  |  | 
